The assay deals with VFT^pp (periplasmic VFT domain of RmcA^pp) (Pseudomonas putida, UniProt Q88QU8). Briefly: biochemical.
VFT^pp (periplasmic VFT domain of RmcA^pp), sequence (Q88QU8 21-265): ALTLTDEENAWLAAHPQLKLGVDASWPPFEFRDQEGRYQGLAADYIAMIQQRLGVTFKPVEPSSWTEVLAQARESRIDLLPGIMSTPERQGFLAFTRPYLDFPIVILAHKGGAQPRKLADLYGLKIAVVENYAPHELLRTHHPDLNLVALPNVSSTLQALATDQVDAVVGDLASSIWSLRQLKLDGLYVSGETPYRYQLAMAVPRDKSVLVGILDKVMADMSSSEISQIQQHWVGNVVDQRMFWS

As to `N=C(N)NCCC[C@H](N)C(=O)O` [L-arginine], binding was characterised by a dissociation constant (Kd) of 7.1 ± 2.2 µM.

Broadly, the Kd is the concentration at which binding is half-saturated.
